Measured values: BindingDB's records for doi:10.1016/S0960-894X(01)80753-8 (1993)

Each molecule was assayed against Platelet-activating factor receptor (Oryctolagus cuniculus) (assay: Inhibition of [3H]PAF binding to rabbit platelet membranes).

Row | Structure (SMILES) | Ki
1 | O=C(c1ccccc1)c1cccc(NC(=O)[C@@H]2OC(=O)N3[C@@H](c4cccnc4)SC[C@@H]23)c1 [(1R,5R,7aR)-3-Oxo-5-pyridin-3-yl-dihydro-thiazolo[3,4-c]oxazole-1-carboxylic acid (3-benzoyl-phenyl)-amide] | 1200 nM
2 | O=C(c1ccccc1)c1cccc(NC(=O)[C@H]2OC(=O)N3[C@@H](c4cccnc4)SC[C@@H]23)c1 [(1S,5R,7aR)-3-Oxo-5-pyridin-3-yl-dihydro-thiazolo[3,4-c]oxazole-1-carboxylic acid (3-benzoyl-phenyl)-amide] | 24 nM
3 | O=C(c1ccccc1)c1cccc(NC(=O)[C@H]2OC(=O)N3[C@H](c4cccnc4)SC[C@@H]23)c1 [(1S,5S,7aR)-3-Oxo-5-pyridin-3-yl-dihydro-thiazolo[3,4-c]oxazole-1-carboxylic acid (3-benzoyl-phenyl)-amide] | 150 nM
4 | O=C(c1ccccc1)c1cccc(NC(=O)[C@@H]2OC(=O)N3[C@H](c4cccnc4)SC[C@@H]23)c1 [(1R,5S,7aR)-3-Oxo-5-pyridin-3-yl-dihydro-thiazolo[3,4-c]oxazole-1-carboxylic acid (3-benzoyl-phenyl)-amide] | 2500 nM
5 | O=C(c1ccccc1)c1cccc(NC(=O)[C@@H]2CSC(c3cccnc3)N2)c1 (stereo partly drawn) [(R)-2-Pyridin-3-yl-thiazolidine-4-carboxylic acid (3-benzoyl-phenyl)-amide] | 5 nM
